Source: publication PMC7531004, “Discovery of gramicidin A analogues with altered activities by multidimensional screening of a one-bead-one-compound library” (Nature Communications, 2020)
Where “and” joins values, the source holds several entries; their conditions need not be identical. Equal entries are not always repeated. Where two headings read alike, the source gives them in different places. Where a SMILES comes first, the peptide text is derived from it. [ ]: non-standard residue; d: D form. The star is where a group is joined. NHCH2CH2OH = OCCN*; For = O=C*

Tests used:
[1] = system: Streptococcus pyogenes SSI-9; assay: Antibacterial activity assay of bead-derived peptides (three concentrations); type: cell-based; parameters: key: +++: inhibition by the 640-fold diluted peptide solution; ++: inhibition by the 160-fold diluted solution; +: inhibition by the 40-fold diluted solution; -: no inhibition; conditions: S. pyogenes
How it was run: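 First, each peptide stock was diluted 4- and 16-fold in DMSO; next, the three solutions were mixed with S. pyogenes SSI-9 suspension (2 × 10^5 CFU) in cation-adjusted Mueller Hinton Broth plus 5% laked horse blood; finally, plates stood 18 h at 37 °C before checking for grown-cell precipitation.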

[2] = system: P388 mouse leukemia cell line; conditions: for IC50: 2 h
[3] = system: MSSA1 (methicillin-susceptible Staphylococcus aureus); type: cell-based
[4] = Membrane disruption assay of purified peptides (carboxyfluorescein leakage); type: biochemical; parameters: key: % lysis; Triton X-100 = 100%, DMSO = 0%; conditions: three replicate lines
[5] = H+/Na+ transport assay of purified peptides; conditions: for Supplementary Figure 5 dose-response value (H+/Na+ transport): three replicate lines
Experimental: First, we evaluated the ion channel function of 1 using liposomes. To mimic a negatively charged Gram-positive bacterial membrane, the liposomes were prepared as large unilamellar vesicles (LUVs) comprising a 19:1 mixture of egg yolk phosphatidylcholine (EYPC) and egg yolk phosphatidylglycerol (EYPG)[57]. Pyranine, a pH-dependent fluorescent dye[58], was encapsulated in the LUVs and a pH gradient was applied across the membrane. H^+/Na^+ transport induced by a peptide was monitored by changes in the fluorescence intensity of pyranine.

[6] = read-out: EC50, H+/Na+ transport assay, 1st experiment
[7] = read-out: EC50, H+/Na+ transport assay, 2nd experiment
[8] = read-out: EC50, H+/Na+ transport assay, 3rd experiment
[9] = read-out: H+/Na+ transport activity EC50, EYPC/EYPG (19:1) LUVs
[10] = read-out: H+/Na+ transport activity/EC50, mean ± SD of three independent experiments

Row | SMILES | antibacterial activity in the library screening [1] | antibacterial activity/MIC [3] | Supplementary Figure 1 dose-response value ([4]; concentration 0.000512 nM) | Supplementary Figure 1 dose-response value ([4]; concentration 0.00256 nM) | Supplementary Figure 1 dose-response value ([4]; concentration 0.0128 nM) | Supplementary Figure 1 dose-response value ([4]; concentration 0.064 nM) | Supplementary Figure 1 dose-response value ([4]; concentration 0.32 nM) | Supplementary Figure 1 dose-response value ([4]; concentration 1.6 nM) | Supplementary Figure 1 dose-response value ([4]; concentration 8 nM) | Supplementary Figure 1 dose-response value ([4]; concentration 40 nM) | Supplementary Figure 1 dose-response value ([4]; concentration 200 nM) | Supplementary Figure 1 dose-response value ([4]; concentration 1000 nM) | Supplementary Figure 1 dose-response value ([4]; concentration 5000 nM) | Supplementary Figure 5 dose-response value (H+/Na+ transport) ([5]; concentration 0.000512 nM) | Supplementary Figure 5 dose-response value (H+/Na+ transport) ([5]; concentration 0.00256 nM) | Supplementary Figure 5 dose-response value (H+/Na+ transport) ([5]; concentration 0.0128 nM) | Supplementary Figure 5 dose-response value (H+/Na+ transport) ([5]; concentration 0.064 nM) | Supplementary Figure 5 dose-response value (H+/Na+ transport) ([5]; concentration 0.32 nM) | Supplementary Figure 5 dose-response value (H+/Na+ transport) ([5]; concentration 1.6 nM) | Supplementary Figure 5 dose-response value (H+/Na+ transport) ([5]; concentration 8 nM) | further results
1 | CC(C)C[C@@H](NC(=O)[C@H](C)NC(=O)[C@H](NC(=O)[C@H](C)NC(=O)CNC(=O)[C@@H](NC=O)C(C)C)[C@H](C)O)C(=O)N[C@H](C(=O)N[C@H](CC(C)C)C(=O)N[C@@H](Cc1c[nH]c2ccccc12)C(=O)N[C@@H](C(=O)N[C@@H](Cc1c[nH]c2ccccc12)C(=O)N[C@H](CC(C)C)C(=O)N[C@@H](Cc1c[nH]c2ccccc12)C(=O)N[C@@H](C(=O)N[C@@H](Cc1c[nH]c2ccccc12)C(=O)NCCO)C(C)C)[C@H](C)O)C(C)C [B21] (For-VGA[dT]A[dL]V[dL]W[dT]W[dL]W[dV]W-NHCH2CH2OH) | Neither of these peptides exhibited growth inhibition activity | 16 µg/mL | 14.8974 and 5.3396 and 11.8083 | 18.072 and -2.382 and 0.726 | -1.184 and 8.357 and 7.1241 | -0.803 and 4.138 and 1.858 | 1.612 and 3.04 and 7.439 | 5.221 and -3.492 and 12.0075 | 15.0705 and 19.6578 and 20.2333 | 21.4059 and 19.6002 and 32.4332 | 39.5964 and 37.7798 and 25.5852 | 40.751 and 51.3594 and 47.003 | 73.5609 and 68.2985 and 59.7258 | 2.384 and 1.443 and 2.029 | 3.95 and 1.0017 and 1.216 | 7.632 and 2.998 and 3.58 | 6.775 and 3.579 and 3.365 | 12.3823 and 9.367 and 13.3536 | 41.7064 and 40.5042 and 40.751 | 73.419 and 69.4178 and 73.375 | IC50 [2]: > 1000 nM; Supplementary Figure 5 dose-response value (H+/Na+ transport) ([5]; concentration 40 nM): 75.8465 and 74.348 and 76.0982; Supplementary Figure 5 dose-response value (H+/Na+ transport) ([5]; concentration 200 nM): 78.878 and 79.2127 and 80.049; Supplementary Figure 5 dose-response value (H+/Na+ transport) ([5]; concentration 1000 nM): 81.8535 and 78.0432 and 78.4426; Supplementary Figure 5 dose-response value (H+/Na+ transport) ([5]; concentration 5000 nM): 82.5653 and 78.9179 and 76.8722; EC50 [5, 6]: 1.57 nM; EC50 [5, 7]: 1.58 nM; EC50 [5, 8]: 1.32 nM; EC50 [5, 9]: 1.5 nM; EC50 [5, 10]: 1.49 ± 0.15 nM
2 | CNC(=O)C[C@@H](NC(=O)[C@@H](NC(=O)[C@@H](CC(C)C)NC(=O)[C@H](C)NC(=O)[C@@H](CC(C)C)NC(=O)[C@H](C)NC(=O)CNC(=O)[C@@H](NC=O)C(C)C)C(C)C)C(=O)N[C@@H](Cc1c[nH]c2ccccc12)C(=O)N[C@H](CC(C)C)C(=O)N[C@@H](Cc1c[nH]c2ccccc12)C(=O)N[C@H](CC(C)C)C(=O)N[C@@H](Cc1c[nH]c2ccccc12)C(=O)N[C@@H](C(=O)N[C@@H](Cc1c[nH]c2ccccc12)C(=O)NCCO)[C@H](C)O [B22] (For-VGA[dL]A[dL]V[dD](NHMe)W[dL]W[dL]W[dT]W-NHCH2CH2OH) | Neither of these peptides exhibited growth inhibition activity | > 64 µg/mL | 5.233 and 5.708 and 3.745 | 6.399 and 0.9122 and 2 | 2.405 and 9.3526 and 2.534 | 4.116 and 2.091 and 9.6371 | 3.439 and -1.283 and 7.2259 | 12.4052 and 7.371 and 12.8868 | 24.0812 and 19.193 and 19.2236 | 21.9455 and 34.569 and 23.6152 | 30.6863 and 31.8474 and 39.9799 | 57.1747 and 48.6012 and 49.2408 | 70.9515 and 65.7371 and 71.376 | 3.488 and 0.6119 and 2.737 | 2.255 and -0.3059 and 2.73 | 4.874 and 2.041 and 3.252 | 5.2777 and 5.073 and 4.243 | 9.536 and 13.0972 and 10.1736 | 28.0205 and 30.7244 and 31.4442 | 63.0425 and 64.573 and 66.6211 | IC50 [2]: > 1000 nM; Supplementary Figure 5 dose-response value (H+/Na+ transport) ([5]; concentration 40 nM): 71.1735 and 74.4694 and 76.8331; Supplementary Figure 5 dose-response value (H+/Na+ transport) ([5]; concentration 200 nM): 80.49 and 75.6285 and 73.1074; Supplementary Figure 5 dose-response value (H+/Na+ transport) ([5]; concentration 1000 nM): 79.8358 and 79.3757 and 78.5441; Supplementary Figure 5 dose-response value (H+/Na+ transport) ([5]; concentration 5000 nM): 88.1657 and 79.255 and 76.0319; EC50 [5, 6]: 2.49 nM; EC50 [5, 7]: 2.93 nM; EC50 [5, 8]: 1.94 nM; EC50 [5, 9]: 2.5 nM; EC50 [5, 10]: 2.45 ± 0.5 nM
3 | CC(C)C[C@@H](NC(=O)[C@H](C)NC(=O)CNC(=O)[C@@H](NC=O)C(C)C)C(=O)N[C@@H](C)C(=O)N[C@@H](C(=O)N[C@H](C(=O)N[C@@H](C(=O)N[C@@H](Cc1c[nH]c2ccccc12)C(=O)N[C@H](CC(C)C)C(=O)N[C@@H](Cc1c[nH]c2ccccc12)C(=O)N[C@H](CC(C)C)C(=O)N[C@@H](Cc1c[nH]c2ccccc12)C(=O)N[C@H](CC(C)C)C(=O)N[C@@H](Cc1c[nH]c2ccccc12)C(=O)NCCO)C(C)C)C(C)C)C(C)C [compound 1, Gramicidin A] (For-VGA[dL]A[dV]V[dV]W[dL]W[dL]W[dL]W-NHCH2CH2OH) | ++ or + | 32 µg/mL | 1.36 and 3.869 and -1.044 | 3.2 and 1.0665 and -1.239 | 3.406 and 6.277 and 1.505 | 4.522 and 0.6394 and 10.119 | 0.03727 and -1.4564 and 8.0175 | 1.309 and 1.672 and 5.415 | 11.9937 and 6.964 and 7.105 | 14.5572 and 22.409 and 17.147 | 26.5638 and 29.1236 and 30.6096 | 36.4056 and 34.1405 and 30.0737 | 57.2698 and 45.8291 and 46.6701 | 0.1393 and -1.026 and 0.8168 | 2.399 and 0.2926 and 2.304 | 3.982 and 3.019 and 2.7829 | 7.464 and 5.495 and 5.604 | 9.988 and 12.6133 and 15.027 | 25.261 and 17.8892 and 24.5099 | 43.5648 and 41.9563 and 41.0019 | antibacterial activity ([1]; bead-derived peptide solution, three concentrations): -; IC99.6 value (threshold concentration of one-point cytotoxicity assay) [2]: 30 nM; P388 cytotoxicity more sensitive than hemolytic activity [2]: 28 fold; EC55.2 value (threshold concentration of one-point ion transport assay) ([5]; H+/Na+ transport): 5.9 nM; Supplementary Figure 5 dose-response value (H+/Na+ transport) ([5]; concentration 40 nM): 66.4966 and 62.6758 and 58.9306; Supplementary Figure 5 dose-response value (H+/Na+ transport) ([5]; concentration 200 nM): 70.2683 and 64.7328 and 64.4099; Supplementary Figure 5 dose-response value (H+/Na+ transport) ([5]; concentration 1000 nM): 68.3656 and 69.2628 and 73.7672; Supplementary Figure 5 dose-response value (H+/Na+ transport) ([5]; concentration 5000 nM): 72.2926 and 68.3983 and 71.8941; EC50 [5, 6]: 4.66 nM; EC50 [5, 7]: 3.91 nM; EC50 [5, 8]: 4.81 nM; EC50 [5, 9]: 4.5 nM; EC50 [5, 10]: 4.46 ± 0.48 nM
